In ChEMBL document CHEMBL1201862, “PubChem BioAssay data set” (2004):
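48-hour exposure; five concentrations; linearly interpolated endpoints. GI50 = concentration required for 50% inhibition of growth.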 Calls of active or inactive are those of the source. No stated cut-off is given here; in the data, active = GI50 up to about 1.1 µM and inactive = higher.

How the values were obtained:
Assay in all cases: growth of human tumour cells (NCI), 48 h
HOP-18 = tested on: HOP-18
XF498 = tested on: XF498
BT-549 = tested on: BT-549
DMS-114 = tested on: DMS-114
DMS-273 = tested on: DMS-273
KM-20L2 = tested on: KM-20L2
RXF 631 = tested on: RXF 631
DLD-1 = tested on: DLD-1
SNB-78 = tested on: SNB-78

Measured: GI50

COc1ccccc1NC(=O)CC(=O)n1nc(C)c(/N=N/c2ccccc2Cl)c1C
inactive: HOP-18 > 100 µM | XF498 > 100 µM | BT-549 > 81.7 µM | DMS-114 > 100 µM | DMS-273 > 100 µM | KM-20L2 > 100 µM | RXF 631 > 31.6 µM | DLD-1 > 100 µM | SNB-78 5.12 µM

NC1=NN(c2ccccc2)C(=O)C1/C(=N\NC(=O)c1cc2ccccc2cc1O)C(=O)Nc1nc([N+](=O)[O-])cs1 (stereo not given)
inactive: HOP-18 40 µM | XF498 36.6 µM | DMS-114 18.4 µM | DMS-273 > 45.2 µM | KM-20L2 40.9 µM | RXF 631 22.7 µM | DLD-1 31.5 µM | SNB-78 > 100 µM

N#C/C(=C\c1cccc(Cl)c1Cl)c1ccccc1
inactive: HOP-18 52.2 µM | XF498 > 42.3 µM | DMS-114 43.7 µM | DMS-273 21 µM | KM-20L2 > 100 µM | RXF 631 50 µM | DLD-1 > 72.8 µM | SNB-78 50.2 µM
